The values below come from patent US20220387368A1, “AN INHIBITOR OF AN IRON-CONTAINING HYDROGENASE OF A METHANOGENIC ARCHAEON FOR USE IN THE TREATMENT OR PREVENTION OF A PARKINSONIAN CONDITION” (UNIVERSITE DU LUXEMBOURG, priority 2019, published 2022).

One data set has as its target T1, alpha-synuclein (Homo sapiens, UniProt P37840).
T1 construct: expressed in transfected cells; host or cells: HiTox yeast strains, galactose-inducible expression
The experiment in a line: Alpha-synuclein aggregation. The conditions noted are these: in contact with alpha-synuclein. On the procedure:
The aggregation of alpha-synuclein is the key molecular hallmark of PD.
The following abbreviations have the meaning given in brackets: α-Syn (alpha-synuclein), α-Syn-F (fibrillary alpha-synuclein, i.e. alpha-synuclein aggregations), Hoechst (DNA staining), TUJ1 (general neuronal marker), TH (tyrosine hydroxylase) and CC3 (cleaved caspase 3 staining, i.e. cell death marker, showing toxicity).
Cells fixed in 4% paraformaldehyde (Merck Millipore, 1004965000) for 15 min at RT and then washed 3× for 5 min with PBS at RT. Prior to immunostaining, a permeabilization step was performed using 0.05% Triton-X100 solution in PBS for 10 min at 4° C. Cells were then blocked for 1 h at RT with 10% FBS in PBS. Incubation with α-synuclein antibody (NOVUS biologicals, NBP1-05194, 1:1000), α-synuclein filament antibody (Abcam, ab20953, 1:5000) and TUJ1 (Millipore, AB9354, 1:600) was done overnight at 4° C. in blocking buffer. The following day, cells were washed with PBS 3× for 5 min at RT. Then, incubation with the corresponding secondary antibodies, Alexa Fluor anti-chicken 488 (Invitrogen, A-11039, 1:1000), Alexa Fluor anti-mouse IgG1 647 (Invitrogen, A-21240, 1:1000) and Alexa Fluor anti-rabbit 568 (Invitrogen, A11036, 1:1000) was performed for 2 h at RT in blocking buffer. Hoechst 33342 solution (Invitrogen, 62249, 1:1000) was added during this step to stain the nuclei. […]

For the next data set, the system named is wildtype mice. Briefly: Adhesive removal test after injection into the brain. The following applies: higher 2-HP concentrations, 15 days post-injection, vs PBS. It counts as in vivo. Here is the method:
The in vivo work testing for effects of 2-HP in a mouse model lead to results from a small-scale 15-day experiment. In this experiment, 2-HP was injected at several concentrations (5, 50 and 100 mM) into the brain of transgenic mice overexpressing human alpha-synuclein, and of wildtype control mice.

Another data set has as its system rats. The following applies: oral administration; cited from earlier work.
For a further data set, the system named is control strain. Briefly: Yeast growth toxicity assay, control strain. The class given is cell-based. On the procedure: (§1) Yeast cells were grown in synthetic complement (SC) media containing 6.7 g/L yeast nitrogen base without amino acids, 5 g/L ammonium sulfate supplemented with 2 g/L SC. Media was autoclaved and the carbon source (8% raffinose or galactose) was added to a final concentration of 2%.
(§2) Four fresh single colonies of the Hitox strain and its respective control strain were inoculated from SC-2% glucose plates into 5 mL SC-2% raffinose and incubated overnight with shaking (200 rpm) at 30° C. After ≈20 h, overnight cultures were diluted to OD 0.5 and 2 μL of the yeast cultivation was added to 78 μL drug containing media to a final optical density of 0.0125 in a 384-well microplate. 2-HP was diluted in SC-2% raffinose/galactose and tested at different concentrations (1-100 mM). Finally, the plates are measured in a microplate reader (TECAN™ Infinite M200Pro), at an interval of 10 minutes during 72 h at 30° C. Yeast growth phenotyping was performed as previous described (Jung et al. 2015). Final biomass was corrected using the GATHODE software (Jung et al., 2015). The OD600 at 48 h was taken for the quantification.

The subject of the next data set is IL-1b mRNA expression. The experiment in a line: IL-1b mRNA expression (qPCR) in murine BMDM model. It counts as cell-based. The conditions noted are these: 10 mM 2-HP, normalized to β-actin, relative to 0 mM. Here is the method: The inventors have tested whether 2-HP can act as signal 1 in the activation of the NLRP3 inflammasome in murine bone-barrow derived macrophages (BMDMs). NLRP3 inflammasome activation is thought to play a role in the pathogenesis of neurodegenerative disorders, and increased levels of this inflammasome and of the related cytokine IL-1b have been detected in Parkinson's patients (Guan & Han, 2020). In these experiments, the cells were grown in BMDM growth media and treated with 2-hydroxypyridine (2.5 and 10 mM) for up to 72 hours. Inflammasome activation was evaluated with qPCR for IL-1b expression (normalized to β-actin), considering the fold change relative to 0 mM 2-HP of each time point. There was a 3.2-fold increase in IL-1b mRNA after 3 hours of 10 mM 2-HP treatment, and 1.5-fold increase after 24 hours (FIG. 8).

The test system of data set [1] is HiTox strains of yeast expressing human alpha-synuclein. The experiment in a line: Yeast growth toxicity assay, HiTox strain. The class given is cell-based. On the procedure: as §1, §2
Another data set concerns enteric neurons. Briefly: Enteric neuron cell viability (MTT) assay. It counts as cell-based. The following applies: 24 h treatment, MTT (FIG. 5). On the procedure: Enteric neurons were cultured in differentiation medium, consisting on Neurobasal (Invitrogen, 21103049) supplemented with 1:200 N2 (Invitrogen, 17502048), 1:100 L-Glutamine (Invitrogen, 25030-024), 1:100 B-27 without Vitamin A (Life Technologies, 12587-010), 1:100 Penicillin/Streptomycin (Invitrogen, 15140122), 25 ng/mL GDNF (Peprotech, 450-10) and 100 μM Ascorbic Acid (Sigma, A5960). Cells were cultured for 21 days in a 6-well plate, then detached with Accutase (Sigma, A6964), and replated into a 96-well plate. Cells were maintained under differentiating conditions until day 31, when they were treated with increasing concentrations of 2-hydroxypyridine (Sigma, H56800). Tested concentrations were as follows: 1 μM, 3 μM, 6 μM, 10 μM, 30 μM, 60 μM, 100 μM, 300 μM, 600 μM, 1 mM and 3 mM.
2-Hydroxypyridine was reconstituted to 10 mM in the differentiation medium described above.
Cells were treated for 24 h, then cell viability was assessed performing a Tetrazolium (MTT) assay. Thiazolyl Blue tetrazolium Bromide (Sigma, M5655) was reconstituted to a 5 mg/mL solution in differentiation media and filtered. 10 μL of the solution were then added to every well containing 100 μL of media. Plate was incubated for 2 h in a normal incubator (37° C., 5% CO2). […] Cells were disaggregated by pipetting vigorously and absorbance was read at 570 nm, using the microplate Cytation 5M reader (Biotek).

Data set [2] concerns transgenic mice (Thy1-Syn14 males). The conditions noted are these: mouse, in vivo. On the procedure:
Newly formed oligomeric forms are then propagated to the CNS via the vagus nerve.
To control toxicity and set an upper threshold level for the chronic exposure study, the ideal concentration in the animals' drinking water (ad libitum) is determined by testing three different concentrations. As reference, the LD50 value determined in rats is used as a threshold for an entire day. The animals, of an average weight of 28 g, take in […] of 2-HP per day. The second factor to account for is the volume of water a C57BI6/j mouse drinks per day, which varies between 5 mL and 8 mL. With an […] water intake per day, the maximum concentration the inventors use is 695 μg/mL of dissolved 2-HP. However, lower doses are aimed for:
These 3 doses are tested on a total of 48 animals. 24 wild-type and 24 transgenic animals are distributed amongst 12 groups. It is essential to have both genotypes in the study, since it cannot be foreseen how human wild-type alpha-synuclein and 2-HP interact in an in vivo model. Further, short-term and long-term effects are analysed. Additionally, this allows to proceed with the post-mortem analysis of the 14 days cohort, allowing to gather information of the early effects of 2-HP on an in vivo system. The following design is used:
In the in-life phase, all animals are checked regularly. Overall behavior in the cage is checked daily. […]

Where [3] appears, read: control, higher concentration of 2-HP (FIG. 3C).

One may read the LD50 as the dose at which mortality reaches 50%. With `Oc1ccccn1` [2-HP, 2-hydroxypyridine], the “effect on alpha-synuclein aggregation” value on alpha-synuclein is listed as “promotes aggregation”. Besides, in the data set on wildtype mice, the “performance in adhesive removal test (sensorimotor function)” value is given as “perform worse”. The LD50 with rats is reported as 124 mg/kg; in the data set with enteric neurons, “around 3 mM”. The “lag time of growth curve” value with control strain (setting [3]) is recorded as “prolonged”. Also, the “yield of growth curve” value in the data set on control strain (setting [3]) is given as “unaffected”. The “toxicity (growth), control strain” value in the data set on control strain (in presence of galactose, control strain (FIG. 3B)) is “not in the control strain”. Besides, the “increase in IL-1b mRNA” value in the data set with IL-1b mRNA expression (3 hours) is 3.2 fold; in the data set on IL-1b mRNA expression (24 hours), 1.5 fold. Further, the “dose at which selectively toxic to transgenic alpha-synuclein expressing yeast” value in data set [1] (HiTox strains of yeast expressing human alpha-synuclein) came out at 1 mM. Moreover, the “toxicity (growth), alpha-synuclein induced” value in data set [1] (in presence of galactose, HiTox strains (FIG. 3B)) is given as “A toxic dose-response can be observed in the HiTox strains”. Further, the “toxicity (growth), alpha-synuclein not induced” value in data set [1] (in presence of raffinose (FIG. 3A)) was “A toxic dose-response can be observed”. Further, the “alpha-synuclein in ENS” value in data set [2] is given as “increased accumulation up to aggregation of alpha-synuclein”. Further, the “motor symptoms and PD-like pathology” value in data set [2] is given as “exacerbation of motor symptoms”.
